In patent US20250388605A1, “HETEROBIFUNCTIONAL COMPOUNDS AND METHODS OF TREATING DISEASE” (Halda Therapeutics OpCo, Inc., priority 2022, published 2025):

Legend:
[1] = tested on: T-Rex 293 cell line SC3 cells having increased expression of androgen receptor protein due to exposure to doxycycline; test: Cellular growth inhibition, T-Rex 293 SC3 cells with doxycycline (increased androgen receptor expression), CellTiter-Glo; type: cell-based; details: T-Rex 293 SC3 cells with 10 ng/mL doxycycline (increased androgen receptor expression), 72 hours, CellTiter-Glo 2.0
In short: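 Doxycycline (10 ng/mL) was either included or omitted to toggle wild-type androgen receptor expression in SC3 cells, a T-Rex 293 clone, grown in stripped-serum, phenol red-free medium. After 72 hours with compound, viable cells were quantified by CellTiter-Glo 2.0.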

T47D cells = test: Cellular Growth Inhibition Assay for T47D Cells (CellTiter-Glo); type: cell-based, human; details: 72 hours
In short: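 GI50 values derive from four-parameter regression of CellTiter-Glo 2.0 luminescence, using zero luminescence as baseline. Human breast cancer T47D cells (3000/well; DMEM, 10% FBS, 0.2 units/mL insulin) were exposed for 72 h to compound dilutions at 0.5% DMSO, with dosing starting 24 h after seeding.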

| SMILES | GI50 [1] [nM] | GI50 (T47D cells) [nM] | GI50 (T47D cells; Homo sapiens) [nM] |
| --- | --- | --- | --- |
| Cn1cc(-c2cc(C(C)(C)O)ccc2Oc2cccc(OCCC3CCN(c4ncc(C(=O)N[C@H]5C(C)(C)[C@H](Oc6ccc(C#N)c(Cl)c6)C5(C)C)cn4)CC3)c2)c2cc[nH]c2c1=O [Compound I-156] | < 500 | 500 to 1500 | – |
| Cn1cc(-c2cc(N)ccc2Oc2cccc(OCCOC3CCN(c4ncc(C(=O)N[C@H]5C(C)(C)[C@H](Oc6ccc(C#N)c(Cl)c6)C5(C)C)cn4)CC3)c2)c2cc[nH]c2c1=O [Compound I-62, 2-(4-(2-(3-(4-amino-2-(6-methyl-7-oxo-6,7-dihydro-1H-pyrrolo[2,3-c]pyridin-4-yl)phenoxy)phenoxy)ethoxy)piperidin-1-yl)-N-((1r, 3r)-3-(3-chloro-4-cyanophenoxy)-2,2,4,4-tetramethylcyclobutyl)pyrimidine-5-carboxamide] | < 500 | – | 500 to 1500 |
| Cn1cc(-c2ccccc2Oc2cccc(N3CC(N4CCN(c5ncc(C(=O)N[C@H]6C(C)(C)[C@H](Oc7ccc(C#N)c(Cl)c7)C6(C)C)cn5)CC4)C3)c2)c2cc[nH]c2c1=O [Compound I-90, N-((1r, 3r)-3-(3-chloro-4-cyanophenoxy)-2,2,4,4-tetramethylcyclobutyl)-2-(4-(1-(3-(2-(6-methyl-7-oxo-6,7-dihydro-1H-pyrrolo[2,3-c]pyridin-4-yl)phenoxy)phenyl)azetidin-3-yl)piperazin-1-yl)pyrimidine-5-carboxamide] | < 500 | – | 500 to 1500 |
| CCS(=O)(=O)Nc1ccc(Oc2cccc(OCCOCCOCCOC3CCN(c4ncc(C(=O)N[C@H]5C(C)(C)[C@H](Oc6ccc(C#N)c(Cl)c6)C5(C)C)cn4)CC3)c2)c(-c2cn(C)c(=O)c3[nH]ccc23)c1 [Compound I-7] | < 500 | – | < 500 |
| CCS(=O)(=O)c1ccc(Oc2cccc(OCCN3CCN(c4ncc5c(n4)CN([C@H]4C(C)(C)[C@H](Oc6ccc(C#N)c(Cl)c6)C4(C)C)C5=O)CC3)c2F)c(-c2cn(C)c(=O)c3[nH]ccc23)c1 [Compound I-217] | < 500 | < 500 | – |
| Cn1cc(-c2cc(C(C)(C)O)ccc2Oc2ccc(OCC3CCN(c4ncc(C(=O)N[C@H]5C(C)(C)[C@H](Oc6ccc(C#N)c(Cl)c6)C5(C)C)cn4)CC3)cc2)c2cc[nH]c2c1=O [Compound I-202] | < 500 | – | 500 to 1500 |
| CCS(=O)(=O)Nc1ccc(Oc2cccc(N3CCN(C4CN(c5ncc(C(=O)N[C@H]6C(C)(C)[C@H](Oc7ccc(C#N)c(Cl)c7)C6(C)C)cn5)C4)CC3)c2)c(-c2cn(C)c(=O)c3[nH]ccc23)c1 [Compound I-126] | < 500 | – | < 500 |
| CN(C1CCN(c2ncc(C(=O)N[C@H]3C(C)(C)[C@H](Oc4ccc(C#N)c(Cl)c4)C3(C)C)cn2)CC1)C1CN(c2ccc(Oc3ccc(C(C)(C)O)cc3-c3cn(C)c(=O)c4[nH]ccc34)cc2)C1 [Compound I-208] | < 500 | – | < 500 |
| Cn1cc(-c2cc(C(C)(C)O)ccc2Oc2ccc(N3CC(CN4CC5CC4CN5c4ncc(C(=O)N[C@H]5C(C)(C)[C@H](Oc6ccc(C#N)c(Cl)c6)C5(C)C)cn4)C3)cc2)c2cc[nH]c2c1=O (stereo partly shown) [Compound I-228] | < 500 | – | < 500 |
| CN(c1ccc(Oc2cccc(N3CC(N4CCN(c5ncc(C(=O)N[C@H]6C(C)(C)[C@H](Oc7ccc(C#N)c(Cl)c7)C6(C)C)cn5)CC4)C3)c2F)c(-c2cn(C)c(=O)c3[nH]ccc23)c1)S(=O)(=O)C1CC1 [Compound I-91] | < 500 | – | 500 to 1500 |
| CCS(=O)(=O)Nc1ccc(Oc2cccc(OCCOC3CCN(c4ccc(C(=O)N[C@H]5C(C)(C)[C@H](Oc6ccc(C#N)c(Cl)c6)C5(C)C)cn4)CC3)c2)c(-c2cn(C)c(=O)c3[nH]ccc23)c1 [Compound I-70, N-((1r, 3r)-3-(3-chloro-4-cyanophenoxy)-2,2,4,4-tetramethylcyclobutyl)-6-(4-(2-(3-(4-(ethylsulfonamido)-2-(6-methyl-7-oxo-6,7-dihydro-1H-pyrrolo[2,3-c]pyridin-4-yl)phenoxy)phenoxy)ethoxy)piperidin-1-yl)nicotinamide] | < 500 | – | < 500 |
| Cn1cc(-c2cc(C(C)(C)O)ccc2Oc2ccc(OCCN3CCN(c4ncc(C(=O)N[C@H]5C(C)(C)[C@H](Oc6ccc(C#N)c(Cl)c6)C5(C)C)cn4)CC3)cc2)c2cc[nH]c2c1=O [Compound I-204] | < 500 | – | < 500 |
| Cn1cc(-c2cc(C(C)(C)O)ccc2Oc2cccc(OCCOC3CCN(c4ncc(C(=O)N[C@H]5C(C)(C)[C@H](Oc6ccc(C#N)c(Cl)c6)C5(C)C)cn4)CC3)c2)c2cc[nH]c2c1=O [Compound I-56, N-((1r, 3r)-3-(3-chloro-4-cyanophenoxy)-2,2,4,4-tetramethylcyclobutyl)-2-(4-(2-(3-(4-(2-hydroxypropan-2-yl)-2-(6-methyl-7-oxo-6,7-dihydro-1H-pyrrolo[2,3-c]pyridin-4-yl)phenoxy)phenoxy)ethoxy)piperidin-1-yl)pyrimidine-5-carboxamide] | < 500 | – | < 500 |
| CCS(=O)(=O)Nc1ccc(Oc2cccc(OCCOC3CCN(c4ncc(C(=O)N[C@H]5C(C)(C)[C@H](Oc6ccc(C#N)c(Cl)c6)C5(C)C)cn4)CC3)c2)c(-c2cn(C)c(=O)c3[nH]ccc23)c1 [Compound I-6] | < 500 | – | < 500 |
| Cn1cc(-c2ccccc2Oc2cccc(OCCOC3CCN(c4ncc(C(=O)N[C@H]5C(C)(C)[C@H](Oc6ccc(C#N)c(Cl)c6)C5(C)C)cn4)CC3)c2)c2ccn(C)c2c1=O [Compound I-137] | < 500 | – | < 500 |
| Cn1cc(-c2cc(N)ccc2Oc2cccc(OCCC3CCN(c4ncc(C(=O)N[C@H]5C(C)(C)[C@H](Oc6ccc(C#N)c(Cl)c6)C5(C)C)cn4)CC3)c2)c2cc[nH]c2c1=O [Compound I-101] | < 500 | – | 500 to 1500 |
| Cn1cc(-c2cc(C(C)(C)O)ccc2Oc2cccc(N3CC(N4CCN(c5ncc(C(=O)N[C@H]6C(C)(C)[C@H](Oc7ccc(C#N)c(Cl)c7)C6(C)C)cn5)CC4)C3)c2)c2cc[nH]c2c1=O [Compound I-105] | < 500 | – | 500 to 1500 |
| Cn1cc(-c2cc(N)ccc2Oc2cccc(N3CC(N4CCN(c5ncc(C(=O)N[C@H]6C(C)(C)[C@H](Oc7ccc(C#N)c(Cl)c7)C6(C)C)cn5)CC4)C3)c2F)c2cc[nH]c2c1=O [Compound I-93] | < 500 | – | 500 to 1500 |
| Cn1cc(-c2cc(C(C)(C)O)ccc2Oc2cccc(CCOC3CCN(c4ncc(C(=O)N[C@H]5C(C)(C)[C@H](Oc6ccc(C#N)c(Cl)c6)C5(C)C)cn4)CC3)c2F)c2cc[nH]c2c1=O [Compound I-147] | < 500 | < 500 | – |
| Cn1cc(-c2ccccc2Oc2cccc(OCCOC3CCN(c4ncc(C(=O)N[C@H]5C(C)(C)[C@H](Oc6ccc(C#N)c(Cl)c6)C5(C)C)cn4)CC3)c2)c2cc[nH]c2c1=O [Compound I-61, N-((1r, 3r)-3-(3-chloro-4-cyanophenoxy)-2,2,4,4-tetramethylcyclobutyl)-2-(4-(2-(3-(2-(6-methyl-7-oxo-6,7-dihydro-1H-pyrrolo[2,3-c]pyridin-4-yl)phenoxy)phenoxy)ethoxy)piperidin-1-yl)pyrimidine-5-carboxamide] | < 500 | – | < 500 |
| CCS(=O)(=O)Nc1ccc(Oc2cccc(CCN3CC4CN(c5ncc(C(=O)N[C@H]6C(C)(C)[C@H](Oc7ccc(C#N)c(Cl)c7)C6(C)C)cn5)CC4C3)c2)c(-c2cn(C)c(=O)c3[nH]ccc23)c1 (stereo partly shown) [Compound I-119] | < 500 | – | < 500 |
| Cc1ccc(CCCOC2CCN(c3ncc(C(=O)N[C@H]4C(C)(C)[C@H](Oc5ccc(C#N)c(Cl)c5)C4(C)C)cn3)CC2)c(C)c1Oc1ccc(C(C)(C)O)cc1-c1cn(C)c(=O)c2[nH]ccc12 [Compound I-195] | < 500 | – | 500 to 1500 |
| CN(C1CN(c2ccc(Oc3ccc(C(C)(C)O)cc3-c3cn(C)c(=O)c4[nH]ccc34)cc2)C1)C1CN(c2ncc(C(=O)N[C@H]3C(C)(C)[C@H](Oc4ccc(C#N)c(Cl)c4)C3(C)C)cn2)C1 [Compound I-238] | < 500 | < 500 | – |
| Cn1cc(-c2cc(C(C)(C)O)ccc2Oc2ccc(N3CC(OC4CCN(c5ncc(C(=O)N[C@H]6C(C)(C)[C@H](Oc7ccc(C#N)c(Cl)c7)C6(C)C)cn5)CC4)C3)cc2)c2cc[nH]c2c1=O [Compound I-219] | < 500 | – | < 500 |
| CC(C)c1ccc(Oc2cccc(OCCN3CCN(c4ncc(C(=O)NC5C(C)(C)C(Oc6ccc(C#N)c(Cl)c6)C5(C)C)cn4)CC3)c2)c(-c2cn(C)c(=O)c3[nH]ccc23)c1 (stereo not shown) [Compound I-107, N-[3-(3-chloro-4-cyano-phenoxy)-2,2,4,4-tetramethyl-cyclobutyl]-2-[4-[2-[3-[4-isopropyl-2-(6-methyl-7-oxo-1H-pyrrolo[2,3-c]pyridin-4-yl)phenoxy]phenoxy]ethyl]piperazin-1-yl]pyrimidine-5-carboxamide] | < 500 | – | < 500 |
| Cc1ccc(CCCOC2CCN(c3ncc(C(=O)N[C@H]4C(C)(C)[C@H](Oc5ccc(C#N)c(Cl)c5)C4(C)C)cn3)CC2)cc1Oc1ccc(C(C)(C)O)cc1-c1cn(C)c(=O)c2[nH]ccc12 [Compound I-192] | < 500 | – | 500 to 1500 |
| CCS(=O)(=O)Nc1ccc(Oc2cccc(N3CC(OC4CCN(c5ncc(C(=O)N[C@H]6C(C)(C)[C@H](Oc7ccc(C#N)c(Cl)c7)C6(C)C)cn5)CC4)C3)c2)c(-c2cn(C)c(=O)c3[nH]ccc23)c1 [Compound I-80] | < 500 | – | < 500 |
| Cn1cc(-c2cc(C(C)(C)O)ccc2Oc2cccc(OCCN3CCN(c4ncc(C(=O)N[C@H]5C(C)(C)[C@H](Oc6ccc(C#N)c(Cl)c6)C5(C)C)cn4)CC3)c2)c2cc[nH]c2c1=O [Compound I-96] | < 500 | – | 500 to 1500 |
| CN(c1ccc(Oc2ccc(C(C)(C)O)cc2-c2cn(C)c(=O)c3[nH]ccc23)cc1)C1CCN(c2ncc(C(=O)N[C@H]3C(C)(C)[C@H](Oc4ccc(C#N)c(Cl)c4)C3(C)C)cn2)CC1 [Compound I-197] | < 500 | – | < 500 |
